In PubChem BioAssay AID1919014 (Molecular Pharmacology Branch, DTP, NCI, 2023):
Where “and” joins values, the source holds several entries; their conditions need not be identical. Equal values may be shown once.

Tested on: NCI-H1341 complex spheroids, percent test/control
Assay: Anticancer human tumor NCI-H1341 cell line growth inhibition [AhR];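 further: spheroids exposed to agents for seven days before readout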
Conditions: for viability, T/C: stronger effect = lower value; active means viability on the fitted dose curve at most 10% of control; inactive means the rest
In short: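 Spheroids combined tumor cells with HUVEC endothelial cells and human MSCs as stroma. AhR antagonists were paired with standard or investigational drugs, each dosed in half-log steps down from near clinical Cmax, or from 10 microM where Cmax was unknown.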

[1] = curve of first compound, second compound 0.1 µM
[2] = curve of first compound, second compound 0.316 µM
[3] = curve of first compound, second compound 1 µM
[4] = curve of first compound, second compound 3.16 µM
[5] = curve of first compound, second compound 10 µM
[6] = second compound 0.1 µM, first compound 0.0316 µM
[7] = second compound 0.1 µM, first compound 0.1 µM
[8] = second compound 0.316 µM, first compound 0.0316 µM
[9] = second compound 0.316 µM, first compound 0.1 µM
[10] = second compound 1 µM, first compound 0.0316 µM
[11] = second compound 1 µM, first compound 0.1 µM
[12] = second compound 3.16 µM, first compound 0.0316 µM
[13] = second compound 3.16 µM, first compound 0.1 µM
[14] = second compound 10 µM, first compound 0.0316 µM
[15] = second compound 10 µM, first compound 0.1 µM

CC[C@@]1(O)C(=O)OCc2c1cc1n(c2=O)Cc2cc3c(CN(C)C)c(O)ccc3nc2-1 + Cc1cncc(-c2nc(NCCc3c[nH]c4ccccc34)c3ncn(C(C)C)c3n2)c1
inactive: viability, T/C (second compound 0.1 µM, first compound 0.000316 µM) 90.4% | viability, T/C (second compound 0.1 µM, first compound 0.001 µM) 81.1% | viability, T/C (second compound 0.1 µM, first compound 0.00316 µM) 69.8% | viability, T/C (second compound 0.1 µM, first compound 0.01 µM) 64% | viability, T/C [6] 42.5% | viability, T/C [7] 38.4% | viability, T/C (second compound 0.316 µM, first compound 0.000316 µM) 67.3% | viability, T/C (second compound 0.316 µM, first compound 0.001 µM) 76.8% | viability, T/C (second compound 0.316 µM, first compound 0.00316 µM) 75.5% | viability, T/C (second compound 0.316 µM, first compound 0.01 µM) 63.2% | viability, T/C [8] 43.5% | viability, T/C [9] 38.2% | viability, T/C (second compound 1 µM, first compound 0.000316 µM) 68.8% | viability, T/C (second compound 1 µM, first compound 0.001 µM) 76.1% | viability, T/C (second compound 1 µM, first compound 0.00316 µM) 77.2% | viability, T/C (second compound 1 µM, first compound 0.01 µM) 60.8% | viability, T/C [10] 40.9% | viability, T/C [11] 32.2% | viability, T/C (second compound 3.16 µM, first compound 0.000316 µM) 72.9% | viability, T/C (second compound 3.16 µM, first compound 0.001 µM) 74.8% | viability, T/C (second compound 3.16 µM, first compound 0.00316 µM) 66.6% | viability, T/C (second compound 3.16 µM, first compound 0.01 µM) 45.7% | viability, T/C [12] 37.1% | viability, T/C [13] 35.5% | viability, T/C (second compound 10 µM, first compound 0.000316 µM) 25.8% | viability, T/C (second compound 10 µM, first compound 0.001 µM) 24.8% | viability, T/C (second compound 10 µM, first compound 0.00316 µM) 24.9% | viability, T/C (second compound 10 µM, first compound 0.01 µM) 18% | viability, T/C [14] 19.2% | viability, T/C [15] 15.1%
0.0187 µM: IC50 [3]
0.0236 µM: IC50 [1]
0.0214 µM: IC50 [2]
< 0.000316 µM: IC50 [5]
0.00791 µM: IC50 [4]

CC[C@@]1(O)C(=O)OCc2c1cc1n(c2=O)Cc2cc3c(CN(C)C)c(O)ccc3nc2-1
inactive: viability, T/C (compound 0.000316 µM) 89.2% and 92.2% and 98.9% | viability, T/C (compound 0.001 µM) 94.4% and 86.7% and 107% | viability, T/C (compound 0.00316 µM) 89.6% and 91.8% and 112% | viability, T/C (compound 0.01 µM) 80.9% and 79.7% and 87.2% | viability, T/C (compound 0.0316 µM) 48.4% and 65.8% and 57.3% | viability, T/C (compound 0.1 µM) 35.3% and 35% and 46.5%
0.0299 µM and 0.0568 µM and 0.0713 µM: IC50 (curve of compound)

CCN(c1cc(-c2ccc(CN3CCOCC3)cc2)cc(C(=O)NCc2c(C)cc(C)[nH]c2=O)c1C)C1CCOCC1
inactive: viability, T/C (compound 0.00949 µM) 94.3% and 103% and 94.7% | viability, T/C (compound 0.03 µM) 84.3% and 90.7% and 97% | viability, T/C (compound 0.0949 µM) 101% and 87.8% and 83% | viability, T/C (compound 0.3 µM) 85% and 87.6% and 82.2% | viability, T/C (compound 0.949 µM) 79.2% and 119% and 90.2% | viability, T/C (compound 3 µM) 90.2% and 89.3% and 73.7%
> 3 µM: IC50 (curve of compound)

Nc1ccccc1NC(=O)c1ccc(CNC(=O)OCc2cccnc2)cc1 + Cc1cncc(-c2nc(NCCc3c[nH]c4ccccc34)c3ncn(C(C)C)c3n2)c1
0.369 µM: IC50 [3]
active: viability, T/C (second compound 0.1 µM, first compound 3.16 µM) 5.05% | viability, T/C (second compound 0.1 µM, first compound 10 µM) 0.51% | viability, T/C (second compound 0.316 µM, first compound 3.16 µM) 5.82% | viability, T/C (second compound 0.316 µM, first compound 10 µM) 0.6% | viability, T/C (second compound 1 µM, first compound 3.16 µM) 5.68% | viability, T/C (second compound 1 µM, first compound 10 µM) 0.56% | viability, T/C (second compound 3.16 µM, first compound 3.16 µM) 8.4% | viability, T/C (second compound 3.16 µM, first compound 10 µM) 0.87% | viability, T/C (second compound 10 µM, first compound 1 µM) 9.63% | viability, T/C (second compound 10 µM, first compound 3.16 µM) 1.83% | viability, T/C (second compound 10 µM, first compound 10 µM) 0.47%
0.382 µM: IC50 [2]
0.403 µM: IC50 [1]
< 0.0316 µM: IC50 [5]
inactive: viability, T/C [6] 66.1% | viability, T/C [7] 76.2% | viability, T/C (second compound 0.1 µM, first compound 0.316 µM) 52.2% | viability, T/C (second compound 0.1 µM, first compound 1 µM) 29.1% | viability, T/C [8] 73.4% | viability, T/C [9] 65.8% | viability, T/C (second compound 0.316 µM, first compound 0.316 µM) 55.7% | viability, T/C (second compound 0.316 µM, first compound 1 µM) 26.1% | viability, T/C [10] 68.6% | viability, T/C [11] 84.9% | viability, T/C (second compound 1 µM, first compound 0.316 µM) 51.3% | viability, T/C (second compound 1 µM, first compound 1 µM) 19.8% | viability, T/C [12] 55.3% | viability, T/C [13] 52.2% | viability, T/C (second compound 3.16 µM, first compound 0.316 µM) 42.3% | viability, T/C (second compound 3.16 µM, first compound 1 µM) 21.7% | viability, T/C [14] 21.9% | viability, T/C [15] 22.6% | viability, T/C (second compound 10 µM, first compound 0.316 µM) 15.2%
0.127 µM: IC50 [4]
